Experimental findings from patent US8372991B2, “Trisubstituted thiophenes that modulate intracellular calcium” (Calcimedica, Inc., priority 2008, dated 2013) are described below.

Molecules are shown by their SMILES. Some results are limits rather than exact numbers.

For this assay, the system named is JR251 or RBL cells. Description: Store-operated calcium entry IC50 in either JR251 or RBL cells. In kind it is cell-based. How it is done: The day prior to performing the assay Orai1/STIM1 stable cells were plated in 50 μL of complete medium at 90-95% confluence in a 384 well plate. Cells were grown at 37° C./6% CO2 overnight. On the day of the assay, 1.5 μM fluo-4-AM (Invitrogen) in complete medium was added to the cells, which were then incubated for 1 hour at RT. Cells were washed once in Ca^2+-free HBSS (Hank's buffered saline solution) and 35 μl of Ca^2+-free HBSS was added to each well. Test compounds were added to wells in a 10 μL Ca^2+-free HBSS solution, prepared at 4.5× the desired final concentration, and incubated for 30 minutes at RT. The initial baseline fluorescence signal was then measured with a FLIPR^384 (Molecular Devices) plate reader. Calcium entry was initiated by adding 5 μl of 10× CaCl2 (10 mM) in HBSS, and changes in cellular fluorescence were measured with the FLIPR^384 plate reader. In each well, the magnitude of the fluorescence signal as a result of calcium entry into the cell was determined by calculating the difference between the peak fluorescence signal measured after calcium addition and the initial baseline fluorescence signal (designated Peak-Basal). IC50 values were typically calculated as the concentration that inhibited 50% of the Peak-Basal signal (Table A).
The day prior to performing the assay, RBL-2H3 cells are plated in 50 μL of complete medium in a 384 well plate. Cells are grown at 37° C./6% CO2 overnight and grow to 50-60% confluence by the next day. On the assay day, 1.5 μM Fluo-4-AM dye (Invitrogen) in complete medium is added and incubated for 1 hour at RT. Cells are washed twice in Ca^2+-free HBSS buffer and 35 μL Ca^2+-free HBSS buffer is added to each well. 10 μL of a test compound prepared in a Ca^2+-free HBSS solution at 4.5× of the desired concentration is added to a well and incubated for 5 minutes at RT. 10 μL of thapsigargin prepared in a Ca^2+-free HBSS solution at 5.5× of the desired concentration (5.5 uM) is added to each well and incubated for an additional 25 minutes. The initial baseline fluorescence signal is measured with a FLIPR^384 (Molecular Devices) plate reader. 5 μL of 12× calcium in HBSS (12 mM) is added and changes in cellular fluorescence are measured with the FLIPR^384 plate reader. In each well, the change in the fluorescent signal as a function of time due to calcium entry into the cell is determined by calculating the difference between the fluorescent signal measured 7 seconds after calcium addition and the initial baseline fluorescence signal at time zero (t=0). This parameter is designated Upslope. The IC50 value is calculated as the concentration at which 50% of the Upslope is inhibited.
Usually IC50 stands for the midpoint of a concentration-inhibition curve. For `O=C(Nc1scc(-c2cnc3[nH]ccc3c2)c1C(=O)O)c1cc2ccccc2o1` [2-(benzofuran-2-carboxamido)-4-(1H-pyrrolo[2,3-b]pyridin-5-yl)thiophene-3-carboxylic acid], the IC50 was less than 10 µM.
For the compound `Cc1nc(N2CCCCC2)ncc1-c1csc(NC(=O)c2cccc(F)c2)c1C(=O)O` [2-(3-fluorobenzamido)-4-(4-methyl-2-(piperidin-1-yl)pyrimidin-5-yl)thiophene-3-carboxylic acid], the concentration for half-maximal inhibition (IC50) is less than 10 µM.
On to `COc1ccc(/C=C/C(=O)Nc2scc(-c3cccs3)c2C(=O)O)cc1OC` [(E)-5′-(3-(3,4-dimethoxyphenyl)acrylamido)-2,3′-bithiophene-4′-carboxylic acid], for which the IC50 was less than 10 µM.
As to `O=C(Nc1scc(-c2cnccn2)c1C(=O)O)c1cccc(F)c1` [2-(3-fluorobenzamido)-4-(pyrazin-2-yl)thiophene-3-carboxylic acid], the IC50 is less than 10 µM.
The same measure for `O=C(Nc1scc(-c2ccc3ccccc3c2)c1C(=O)O)c1nc2ccccc2o1` [2-(benzo[d]oxazole-2-carboxamido)-4-(naphthalen-2-yl)thiophene-3-carboxylic acid]: less than 10 µM; for `Cc1ccc(-c2csc(NC(=O)c3nc4ccccc4o3)c2C(=O)O)c2ccccc12` [2-(benzo[d]oxazole-2-carboxamido)-4-(4-methylnaphthalen-1-yl)thiophene-3-carboxylic acid]: less than 10 µM.
On to `O=C(Nc1scc(-c2nc3ccccc3s2)c1C(=O)O)c1cc2ccccc2o1` [4-(benzo[d]thiazol-2-yl)-2-(benzofuran-2-carboxamido)thiophene-3-carboxylic acid], for which the IC50 is less than 10 µM.
In the case of `COc1ccc(-c2csc(NC(=O)c3cc4ccccc4o3)c2C(=O)O)cn1` [2-(benzofuran-2-carboxamido)-4-(6-methoxypyridin-3-yl)thiophene-3-carboxylic acid], the IC50 is less than 10 µM.
Consider `Cc1nnsc1C(=O)Nc1scc(-c2cnn(-c3ccc(Cl)cc3)c2)c1C(=O)O` [4-(1-(4-chlorophenyl)-1H-pyrazol-4-yl)-2-(4-methyl-1,2,3-thiadiazole-5-carboxamido)thiophene-3-carboxylic acid], for which the IC50 is less than 10 µM.
Turning to `O=C(Nc1scc(-c2cnn(-c3ccc(Cl)cc3)c2)c1C(=O)O)c1cnccn1` [4-(1-(4-chlorophenyl)-1H-pyrazol-4-yl)-2-(pyrazine-2-carboxamido)thiophene-3-carboxylic acid], the IC50 was less than 10 µM.
As for `O=C(Nc1scc(-c2cnccn2)c1C(=O)O)c1ccnnc1` [4-(pyrazin-2-yl)-2-(pyridazine-4-carboxamido)thiophene-3-carboxylic acid], the IC50 was less than 10 µM.
On to `Cc1csc(-c2csc(NC(=O)c3cccc(F)c3)c2C(=O)O)n1` [2-(3-fluorobenzamido)-4-(4-methylthiazol-2-yl)thiophene-3-carboxylic acid], for which the IC50 is less than 10 µM.
In the case of `O=C(Nc1scc(-c2cnn(-c3ccc(Cl)cc3)c2)c1C(=O)O)c1ccnnc1` [4-(1-(4-chlorophenyl)-1H-pyrazol-4-yl)-2-(pyridazine-4-carboxamido)thiophene-3-carboxylic acid], the IC50 is less than 10 µM.
As for `COc1ccc(-c2csc(NC(=O)c3cccc(F)c3)c2C(=O)O)cn1` [2-(3-fluorobenzamido)-4-(6-methoxypyridin-3-yl)thiophene-3-carboxylic acid], the IC50 is less than 10 µM.
On to `O=C(Nc1scc(-c2ccc(Br)s2)c1C(=O)O)c1cc2ccccc2o1` [5′-(benzofuran-2-carboxamido)-5-bromo-2,3′-bithiophene-4′-carboxylic acid], for which the IC50 was less than 10 µM.
For `O=C(Nc1scc(-c2cccs2)c1C(=O)O)c1ccccc1Cl` [5′-(2-chlorobenzamido)-2,3′-bithiophene-4′-carboxylic acid], the concentration for half-maximal inhibition (IC50) is less than 10 µM.
With `Cc1nc(N2CCCCC2)ncc1-c1csc(NC(=O)c2ccnnc2)c1C(=O)O` [4-(4-methyl-2-(piperidin-1-yl)pyrimidin-5-yl)-2-(pyridazine-4-carboxamido)thiophene-3-carboxylic acid], the IC50 is less than 10 µM.
